For 8 compounds, IC50 results are on record in patent publication US6984649B1, “Pyridine derivatives” (Bayer Aktiengesellschaft, priority 2000, dated 2006).

Structures are written as SMILES. Structures can show the parent of a compound that is named as a salt. Where only a bound is given, the exact number is not on record here.

In the first test the test system is A549 human lung epithelium cell line. The test is described as follows: RANTES production in response to TNF-α from A549 cells. The class given is cell-based. Particulars: Homo sapiens, A549, A549 cells, 100 ng/ml TNF-α, read-out: Cellular activity grade (A549) (Cellular IC50). How it is done: [The Measurement of RANTES Production in Response to TNF-α from A549 Cells]
(1) Preparation of A549 Cells
• The A549 human lung epithelium cell line (ATCC […]) was maintained in Dulbecco's modified Eagle's medium (D-MEM, Nikken Biomedical Institute) supplemented with 10% FCS (Gibco), 100 U/ml penicillin, 100 μg/ml streptomycin, and 2 mM glutamine (culture medium). Forty thousand (4×10^4) cells (80 μl/well) were seeded in each well of 96 well flat-bottom tissue culture plate (Falcon #3072). The plate was allowed to stand for 2 hrs, thus the cells were adhered to the bottom of each well. To the each well was added 10 μl vehicle (1% DMSO), serial dilutions of test compounds in 1% DMSO, or 5 nM Dexamethasone in 1% DMSO as a reference. The mixture (90 μl/well) was incubated for 1 hr at 37° C. After 1 hr, 1 μg/ml TNF-α (10 μl) in culture medium was added to the mixture to obtain 100 μl of reaction mixture. The reaction mixture was cultured for 24 hrs to stimulate the cells with 100 ng/ml TNF-α. Cells with vehicle without TNF-α stimulation were also prepared. (2) Measurement of RANTES Production • Then the concentration of RANTES released from the cells in the supernatants of each well was determined using a quantitative sandwich enzyme immunoassay technique. First, 2 μg/ml mouse anti-huRANTES mAb (R&D Systems, #mAb678) in PBS buffer (pH 7.4, 100 μl) was put in each well of 96-well NUNC fluoro plate (Nalge Nunc, New York USA) (Final 200 ng/well) and the plate was allowed to stand for overnight at 4° C. to be coated by the antibody. Each well of the plate was then washed with 350 μl wash buffer (0.05% Tween-20, 0.85% NaCl, and 25 mM Tris/HCl pH7.4) for three times. Blocking buffer containing 1% BSA (Sigma 99% pure, 100 g), 5% sucrose (Nacalai tesque, 99% pure, 500 g), and 0.02% azide (Nacalai tesque, 100%, 500 g) were added (200 μl) to each well and then the plate was allowed to stand for 4 hours to stabilize the coated antibody. Next, 50 μl supernatants of cell culture prepared in (1) above were put in each well of the 96-well NUNC fluoro plate with coated antibody. Recombinant Human RANTES (Pepro Tech, Inc. #300-06) was used as the standard for the determination of RANTES production (linear range between 1 and 10 ng/ml). Eu-labelled mouse anti-huRANES mAb (60 ng/ml: R&D Systems, #mAb278) in PBS supplemented by 1% BSA and 0.05% Tween 20 was added (50 μl) to each well. The reaction mixtures were incubated at room temperature for 4 hrs. After washing with wash buffer (0.05% Tween-20, 0.85% NaCl, and 25 mM Tris/HCl pH7.4, 350 μl/well) for 5 times with the use of a Sera Washer (Bio-Tech, #MW-96R), the enhancement solution (DELFIA, #1244-405, 100 μl/well) was added to each well. The plate was incubated for 10 minutes at room temperature with moderate shaking. Fluorescent intensity was measured using a DELFIA fluorimeter (Wallac). Excitation was performed at 340 nm and emission was measured at 615 nm. [The Measurement of TNF-α Production in Response to LPS from Peripheral Blood Mononuclear Cells (PBMC)] (1) Preparation of PBMC • Human PBMC were prepared by first obtaining blood from healthy donors and isolating the cells from the blood. The isolation was done by Ficoll gradient-centrifugation method using Ficoll Pacque (Pharmacia #17-1440-02). Within three hours from donation, the isolated PBMC was used. After three times washing with PBS, PBMC were resuspended with RPMI 1640 (Nikken BioMedical Institute) supplemented with 10% FCS (Gibco), 100 U/ml penicillin, 100 μg/ml streptomycin, and 2 mM glutamine (culture medium). The cells (1×10^5 in 150 μL/well) were seeded in each well of 96 well flat-bottom tissue culture plate (Falcon #3072). To the each well was added 20 μl vehicle (1% DMSO), serial dilutions of test compounds in 1% DMSO, or 250 nM Dexamethasone in 1% DMSO as a reference. The mixture (170 μl/well) was incubated for 1 hr at 37° C. After 1 hr, 20 ng/ml LPS (30 μl) in culture medium was added to the mixture to obtain 200 μl of reaction mixture. […]
For orientation: IC50 means the concentration at which inhibition is half-maximal. Turning to `O=C1Nc2nc(-c3c(O)cccc3OCC3CC3)cc(C3CCCNC3)c2CO1` (centres unmarked) [Example 18-1, 7-[2-(cyclopropylmethoxy)-6-hydroxyphenyl]-5-(3-piperidinyl)-1,4-dihydro-2H-pyrido[2,3-d][1,3]oxazin-2-one hydrochloride], the half-inhibitory concentration (IC50) is < 1000 nM.

Another test has as its target T1, human IKK-β (Homo sapiens, UniProt O14920).
T1 construct: A cDNA fragment encoding human IKK-β open reading frame was generated by PCR; His tag (from pcDNA3.1/His C); made in house; host or cells: Sf21 insect cells (baculovirus); substrate made in E. coli
T1 sequence (O14920 1-756): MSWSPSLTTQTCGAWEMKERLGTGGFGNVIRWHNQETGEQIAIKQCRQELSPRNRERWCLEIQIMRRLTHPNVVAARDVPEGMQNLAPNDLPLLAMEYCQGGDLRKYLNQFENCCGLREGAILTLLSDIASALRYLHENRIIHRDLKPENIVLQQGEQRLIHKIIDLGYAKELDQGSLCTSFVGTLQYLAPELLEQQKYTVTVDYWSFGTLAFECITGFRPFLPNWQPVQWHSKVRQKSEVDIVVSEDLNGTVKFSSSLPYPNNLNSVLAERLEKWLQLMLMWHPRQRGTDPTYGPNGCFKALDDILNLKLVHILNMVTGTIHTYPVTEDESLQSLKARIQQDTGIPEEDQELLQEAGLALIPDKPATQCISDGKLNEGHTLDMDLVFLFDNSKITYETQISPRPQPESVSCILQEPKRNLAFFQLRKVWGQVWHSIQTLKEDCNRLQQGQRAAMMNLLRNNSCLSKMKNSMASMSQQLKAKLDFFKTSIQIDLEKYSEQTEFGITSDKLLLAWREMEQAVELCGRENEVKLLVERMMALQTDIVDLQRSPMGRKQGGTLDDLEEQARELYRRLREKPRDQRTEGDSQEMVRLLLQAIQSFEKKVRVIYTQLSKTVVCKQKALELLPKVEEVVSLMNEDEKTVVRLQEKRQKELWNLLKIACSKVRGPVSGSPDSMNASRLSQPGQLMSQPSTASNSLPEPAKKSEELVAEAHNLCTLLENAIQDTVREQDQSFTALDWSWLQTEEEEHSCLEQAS
Nature of the test: IKK-β kinase inhibitory assay. The class given is biochemical. Conditions: compounds as yielded by solid phase synthesis, purity about 40 to 90%, read-out: In vitro activity grade (In vitro IC50). The source says: [IKK-β Kinase Inhibitory Assay]
(1) Preparation of IKK-β Kinase Protein.
• A cDNA fragment encoding human IKK-β open reading frame was generated by PCR with the use of a pair of primers designed from the published sequence (Woronicz J D et al. (1997) Science 278, 866-869). A template was obtained from Quickclone cDNA (Clontech) using Elongase™ Amplification kit (Life Technologies). The DNA fragments generated by PCR were gel-purified and subcloned into pBluescript. The cDNA fragment cloned in pBluescript was inserted into pcDNA3.1/His C KpnI/NotI, and transferred into pVL1393 SmaI/XbaI (Pharmingen) to construct a baculovirus transfer vector. Then the vector, together with the linearized baculovirus (BaculoGold™, Pharmingen) was used to transfect Sf21 cells (Invitrogen, San Diego, Calif.). Generated recombinant baculovirus was cloned and amplified in Sf21 cells, grown in TNM-FH insect cell medium (Life Technologies, Inc.) supplemented with 10% FCS, […] Gentamycin, 0.1% Pluronic F-68 (Life Technologies, Inc.) as suspension culture (200 ml in 1 L Erlenmeyer flask; 27° C.; 130 rpm). Sf21 cells were infected with this amplified virus with a multiplicity of infection of 5 following standard protocols (Crossen R, Gruenwald S (1997) Baculovirus Expression Vector System Instruction Manual, Pharmingen Corporation) and harvested 48 hrs later. The cells were lysed to obtain the produced chimeric protein of IKK-β kinase fused by histidine (His-tagged IKK-beta). (2) The Preparation of Purified GST-IκBα Fusion Proteins • An expression vector containing the nucleotide sequence encoding fusion protein of GST with amino acid residues 1 to 54 of IκBα under the control of an IPTG-inducible promoter was constructed. The expression vector was introduced in E. coli and the transformant was cultured and lysed to obtain a GST-IκBα fusion protein. Then the resulting GST-IκBα fusion protein was purified and biotinated for kinase assay. (3) The Measurement of IKK-β Kinase Activity • The 96-well format kinase assay of IKK-β were performed to test the inhibitory activity of the compounds of the present invention. First, 5 μl of a test compound was put in the presence of 2.5% dimethyl sulfoxide (DMSO) in each well in a U-bottomed 96-well plate (Falcon). For control wells of background (BG) and total phosphorylation (TP), 5 μl of 2.5% DMSO was put. Recombinant IKK-β (final 0.6 μg/ml) and bio-GST-IκBα (1-54) (final 0.2 μM) were diluted in 25 μl of 2×kinase buffer β (40 mM Tris-HCl, pH 7.6, 40 mM MgCl2, 40 mM β-glycerophosphate, 40 mM p-nitrophenylphosphate, 2 mM EDTA, 40 mM creatine phosphate, 2 mM DTT, 2 mM Na3VO4, 0.2 mg/ml BSA and 0.8 mM phenylmethylsulfonyl fluoride) and transferred to the 96-well plate. Bio-GST-IκBα (1-54) in 25 μl of 2×kinase buffer β without IKK-β was transferred to BG wells. Then 20 μl of 12.5 μM ATP, 62.5 μCi/ml [γ-^33P] ATP (Amersham Pharmacia Biotech) was added and the resulting mixture was incubated for 2 hrs at room temperature. The kinase reactions were terminated by the addition of 150 μl of termination buffer (100 mM EDTA, 1 mg/ml BSA, 0.2 mg NaN3). One hundred and fifty μl of the sample were transferred to a streptavidin-coated, white MTP (Steffens Biotechniche Analysen GmbH #08114E14.FWD) to capture the biotinylated substrates. After 1 hr of incubation, non-bound radioactivity was eliminated by washing the wells five times with 300 μl of washing buffer including 0.9% NaCl and 0.1% (w/v) Tween-20 with the use of a MW-96 plate washer (BioTec). The bound radioactivity was determined after the addition of 170 μl MicroScint-PS scintillation cocktail (Packard) using a TopCount scintillation counter. [Syk Tyrosine Kinase Inhibitory Assay for Selectivity] (1) Preparation of Syk Protein • A cDNA fragment encoding human Syk openreading frame was cloned from total RNA of human Burkitt's lymphoma B cell lines, Raji (American Type Culture Collection), with the use of RT-PCR method.
As to `N#Cc1c(C2CNc3ccccc3C2)cc(-c2ccccc2O)nc1N` (centres unmarked) [Example 1-16], the 50% inhibitory concentration (IC50) was > 10000 nM. Take `N#Cc1c([C@@H]2Cc3ccccc3CN2)cc(-c2ccccc2O)nc1N` [Example 1-27]: the IC50 lay in the range of 2000 to 10000 nM.

Take `CCCCOc1cccc(O)c1-c1cc(C2CCNCC2)c(C#N)c(N)n1` [Example 2-72]: the IC50 is < 500 nM. Same read-out and setting: the result for `N#Cc1c(C2CCCNC2)cc(-c2ccccc2O)nc1N1CCNCC1` (centres unmarked) [Example 4-5, 6-(2-hydroxyphenyl)-2-(1-piperazinyl)-4-(3-piperidinyl)nicotinonitrile dihydrochloride] reads > 10000 nM; that for `Cn1c(=O)[nH]c2nc(-c3c(O)cccc3OCC3CC3)cc(C3CCCNC3)c2c1=O` (centres unmarked) [Example 10-2, 7-(2-Cyclopropylmethoxy-6-hydroxy-phenyl)-3-methyl-5-piperidin-3-yl-1H-pyrido[2,3-d]pyrimidine-2,4-dione], < 500 nM. On to `N#Cc1c(N2CCCCC2)cc(-c2ccccc2O)nc1N` [Example 34-05], for which the IC50 is > 10000 nM. The same measure, in the same setting: the same measure for `N#Cc1c(NCCN)cc(-c2c(O)cccc2OCC2CC2)nc1N` [Example 34-14]: < 500 nM.
